Reference: patent US5215916A, “Super glucocorticoid receptors: receptors with increased affinity and specificity for glucocorticoid steriods” (priority 1991, dated 1993)

Target: T1, C656S mutant glucocorticoid receptor (Rattus norvegicus, UniProt P06536, C656S/D98G)
T1 construct: Thus the full length receptor was removed from the VARO vector with BamHI and inserted into the SVL vector; expressed in transfected cells; host or cells: COS-7 (cytosol)
T1 sequence (P06536 1-795 D98G/C656S): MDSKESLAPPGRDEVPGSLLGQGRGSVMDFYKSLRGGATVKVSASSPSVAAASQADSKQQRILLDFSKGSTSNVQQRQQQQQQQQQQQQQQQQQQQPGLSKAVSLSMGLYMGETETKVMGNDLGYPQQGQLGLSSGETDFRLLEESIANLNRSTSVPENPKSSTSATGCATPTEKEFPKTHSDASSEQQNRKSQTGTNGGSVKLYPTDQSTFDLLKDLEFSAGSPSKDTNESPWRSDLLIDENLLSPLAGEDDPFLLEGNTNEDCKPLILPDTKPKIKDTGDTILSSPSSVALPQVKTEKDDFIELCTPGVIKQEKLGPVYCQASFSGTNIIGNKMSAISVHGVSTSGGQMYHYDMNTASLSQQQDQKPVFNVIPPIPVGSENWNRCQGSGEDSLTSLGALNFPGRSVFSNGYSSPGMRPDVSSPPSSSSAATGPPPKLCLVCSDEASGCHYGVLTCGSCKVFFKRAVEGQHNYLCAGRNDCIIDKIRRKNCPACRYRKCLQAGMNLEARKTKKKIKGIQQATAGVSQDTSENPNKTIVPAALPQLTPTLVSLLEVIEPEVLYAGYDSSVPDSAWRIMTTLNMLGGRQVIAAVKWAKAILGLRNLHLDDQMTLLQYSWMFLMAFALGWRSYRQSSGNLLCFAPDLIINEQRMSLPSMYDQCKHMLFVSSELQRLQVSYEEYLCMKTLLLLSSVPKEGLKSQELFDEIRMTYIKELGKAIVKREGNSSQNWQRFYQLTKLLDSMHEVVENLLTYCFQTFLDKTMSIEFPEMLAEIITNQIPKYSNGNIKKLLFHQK
Assay: Competition binding assay with [3H]Dex, COS-7 cytosol, C656S receptor
Conditions: for reduction in relative affinity on replacement of Cys-656 with serine: C656S vs wild type, 2.5 hr incubation
Protocol: Monolayer cultures of COS-7 cells were grown in DMEM (Gibco) supplemented with 5% fetal bovine serum (FBS) (Biofluids) at 37° C. in a 5% CO2 incubator. Standard calcium phosphate transfection methods were used to introduce the wild type and mutant receptor expression vectors (pSVL) into COS-7 cells (100 mm plates [Costar] at a cell density of about 10^6 /plate were each treated with 10 μg of plasmid DNA). After ~16 hrs of incubation at 37° C. in a 5% CO2 incubator, the excess calcium phosphate and precipitate were removed by washing with phosphate buffered saline (PBS). The cells were incubated at 37° C. for another ~48 hr in DMEM/ 5% FBS and harvested by trypsinization followed by centrifugation (for 10 min at 1570 ×g) and washing 3 times with PBS. The washed cells were stored at -80° C. until used.
Briefly, 30% cytosol solutions containing ~21 mM Na2 MoO4 were prepared with three parts COS-7 cell cytosol, 2 parts pH 9.5 TAPS buffer, and 5 parts pH 8.8 TAPS buffer. The total EtOH in each experiment was kept constant and at a level of ≤1%. […] After incubation for 2.5 hr, the [^3 H]Dex-Mes-labeled solutions were quick-frozen at -78° C. for subsequent SDS-polyacrylamide gel electrophoresis analysis. The specifically bound [^3 H]Dex was determined by first adding a 10% dextran-coated charcoal solution (added volume =20% of reaction solution volume) to remove free steroid and then subtracting the nonspecific binding seen in the presence of excess nonradioactive Dex.
The average specific binding was determined after 2.5 or 24 hr of incubation as described above, expressed as percentage of the non-competed control and plotted versus the log10 of the concentration of the competing steroid.
The initial data were collected from 2.5 hr binding assays because of concerns about the stability of the receptors over longer times.

SMILES	Relative Ka of Steroid Binding to Receptor	reduction in relative affinity on replacement of Cys-656 with serine
CC#C[C@]1(O)CC[C@H]2[C@@H]3CCC4=CC(=O)CCC4=C3[C@@H](c3ccc(N(C)C)cc3)C[C@@]21C [RU486]	3.4	
C[C@]12CC[C@@H]3c4ccc(O)cc4CC[C@H]3[C@@H]1CC[C@@H]2O [17β-Estradiol, 17β-estradiol]	0.0015	≥ 10 fold
C[C@]12CCC(=O)C=C1CC[C@@H]1[C@@H]2[C@@H](O)C[C@]2(C=O)[C@@H](C(=O)CO)CC[C@@H]12 [Aldosterone, aldosterone]	0.068	≤ 3 fold
